# Test system: drug-resistant Mycobacterium tuberculosis
# Settings: 5 micrograms per ml
structure (smiles),measurement,value
CC(C)C[C@H](NC(=O)[C@H](Cc1ccccc1)NC(=O)CNC(=O)CNC(=O)[C@@H](N)Cc1ccc(O)cc1)C(=O)N[C@@H](CCCNC(=N)N)C(=O)N[C@@H](CCCNC(=N)N)C(=O)N[C@@H](CCC(N)=O)C(=O)N[C@@H](Cc1ccccc1)C(=O)N[C@@H](CCCCN)C(=O)N[C@H](C(=O)N[C@H](C(=O)N[C@H](C(=O)O)[C@@H](C)O)C(C)C)C(C)C [Dynorphin B],% inhibition,0.0%
